Measured values as given in patent US7381744B1, “Method of treating osteoporosis comprising vacuolar-type (H+)-ATPase-inhibiting compounds” (The United States of America as represented by the …, priority 1999, dated 2008).

Key:
[1] = tested on: fungal vacuolar-type (H+)-ATPase (from Neurospora crassa); assay: fungal vacuolar-type (H+)-ATPase inhibition, side-by-side test; type: biochemical
From the text: (§1) The inhibitory data were obtained using the same procedures and biological preparations described in Bowman et al., Proc. Natl. Acad. Sci. USA, 85, 7972-7976 (November 1988).

[2] = tested on: mammalian vacuolar-type (H+)-ATPase (from chromaffin granule membranes); assay: mammalian vacuolar-type (H+)-ATPase inhibition, side-by-side test; type: biochemical; settings: chromaffin granule membranes; side-by-side test
From the text: as §1

C/C=C/[C@H]1O[C@@](O)([C@@H](C)[C@H](O)[C@H](C)[C@H]2OC(=O)/C(OC)=C/C(C)=C/[C@@H](C)[C@@H](O)[C@@H](CC)[C@@H](O)[C@H](C)C/C(C)=C/C=C/[C@@H]2OC)C[C@@H](O[C@H]2C[C@@H](O)[C@H](OC(N)=O)[C@@H](C)O2)[C@@H]1C [concanamycin A, reference compound]
inhibitory activity against fungal vacuolar-type (H+)-ATPase [1]: potent inhibitor | inhibitory activity against mammalian vacuolar-type (H+)-ATPase [2]: potent inhibitor
